For 35 compounds, IC50 and inhibition in vivo results are on record in patent US9624215B2, “Amine derivative or salt thereof” (TOYAMA CHEMICAL CO., LTD., priority 2012, dated 2017).

Test [1] has as its system normal human neonatal foreskin epidermal keratinocytes (NHEK-F). Description: Cell proliferation inhibition test. It counts as cell-based. The following applies: Keratinocyte, 72 h, NHEK-F cells, three days incubation, ATPlite or CellTiterGlo, read-out: IC50 (concentration of the compound at which the cell count is reduced by 50%). In short, it runs like this:
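IC50 is the compound level halving cell count relative to untreated wells, with counts from ATP-based luminescence (ATPlite or CellTiterGlo). Readout followed 3 days of compound exposure of overnight-attached neonatal foreskin keratinocytes (2×10^3/well, Humedia-EG2 medium).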
(In general: In ATP-based viability assays light output follows the ATP content of the culture.)

The subject of test [2] is TPA-induced ear edema and acanthosis in Balb/c mice. Briefly: Mouse TPA-induced ear-swelling model. It counts as in vivo. The following applies: topical, 240 h, 1% w/v solution, 20 μL applied to ear once a day from day 0 to day 9, female Balb/c mice, read-out: Inhibition rate of change in ear thickness on day 10. The method, then:
Seven-week-old female Balb/c mice (Charles River Laboratories Japan) were used. 20 μL of a 20 ng/mL solution of TPA (Wako Pure Chemical Industries, 162-23591) dissolved in 5% DMSO/acetone was applied to the outer side of the mouse ear on day 0, day 2, day 4, day 7 and day 9 to induce ear edema and acanthosis. The test compound was dissolved in a 5% DMSO/acetone solution (concentration: 1% w/v) and 20 μL of the resulting solution was applied to the outer side of the ear once a day from day 0 to day 9. For the control group, a 5% DMSO/acetone solution was similarly applied. The TPA solution and the test compound solution were mixed and applied on the days for TPA application (day 0, day 2, day 4, day 7 and day 9). The ear thickness was chronologically measured on days 0-4 and days 7-10 using a micrometer (Mitutoyo, MDC-25MJT). The change in ear thickness and the inhibition rate were determined by the following formulas. Change in ear thickness=(ear thickness measured on day 10)−(ear thickness measured on day 0 before TPA application) Inhibition rate (%)=100−(change in ear thickness for test compound group/change in ear thickness for control group)×100

For `O=C(O)c1cc(C2CC2)cnc1Nc1ccc2c(ccn2CC2CCCC2)c1` [Example 138, 2-((1-(cyclopentylmethyl)-1H-indol-5-yl)amino)-5-cyclopropylnicotinic acid], the IC50 in test [1] was not above 10 nM. In test [2], the inhibition in vivo at 1 % strength was not below 20%.

In the case of `O=C(O)c1cc(C2CC2)cnc1Nc1ccc2c(cnn2CC2CCCCC2)c1` [Example 543, 2-((1-(cyclohexylmethyl)-1H-indazol-5-yl)amino)-5-cyclopropylnicotinic acid], the IC50 in test [1] is not above 10 nM. The inhibition in vivo at 1 % strength in test [2] was not below 20%.

Turning to `O=C(O)c1cc(C2CC2)cnc1Nc1ccc2c(ccn2Cc2ccccc2F)c1` [Example 458, 5-cyclopropyl-2-((1-(2-fluorobenzyl)-1H-indol-5-yl)amino)nicotinic acid], the IC50 in test [1] was not above 10 nM. Besides, the inhibition in vivo at 1 % strength in test [2] is not below 20%.

As for `Cn1ccc2cc(Nc3ncc(C4CC4)cc3C(=O)O)cc(-c3cccc(-c4ccccc4)c3)c21` [Example 189, 2-((7-([1,1′-biphenyl]-3-yl)-1-methyl-1H-indol-5-yl)amino)-5-cyclopropylnicotinic acid], in test [1], the IC50 was not above 10 nM. In test [2], the inhibition in vivo at 1 % strength was not below 20%.

Take `O=C(O)c1cc(C2CC2)cnc1Nc1ccc2c(ccn2Cc2cccc(F)c2)c1` [Example 239, 5-cyclopropyl-2-((1-(3-fluorobenzyl)-1H-indol-5-yl)amino)nicotinic acid]: the IC50 in test [1] was not above 10 nM. Moreover, the inhibition in vivo at 1 % strength in test [2] was not below 20%.

Consider `O=C(O)c1cc(C2CC2)cnc1Nc1ccc2c(ccn2Cc2ccc(F)cc2)c1` [Example 241, 5-cyclopropyl-2-((1-(4-fluorobenzyl)-1H-indol-5-yl)amino)nicotinic acid], for which, in test [1], the IC50 was not above 10 nM. In test [2], the inhibition in vivo at 1 % strength was not below 20%.

Turning to `Cn1ccc2cc(Nc3ncc(C4CC4)cc3C(=O)O)cc(C3=CCCCC3)c21` [Example 504], in test [1], the IC50 was not above 10 nM.

Turning to `Cc1cc(C)cc(Cn2ccc3cc(Nc4ncc(C5CC5)cc4C(=O)O)ccc32)c1` [Example 498, 5-cyclopropyl-2-((1-(3,5-dimethylbenzyl)-1H-indol-5-yl)amino)nicotinic acid], the IC50 in test [1] is not above 10 nM.

Consider `Cn1ccc2cc(Nc3ncc(C4CC4)cc3C(=O)O)cc(-c3ccc(-c4ccccc4)cc3)c21` [Example 191, 2-((7-([1,1′-biphenyl]-4-yl)-1-methyl-1H-indol-5-yl)amino)-5-cyclopropylnicotinic acid], for which the IC50 in test [1] was not above 10 nM.

Regarding `CC(C)Cn1c(=O)sc2cc(Nc3ncc(C4CC4)cc3C(=O)O)ccc21` [Example 563, 5-Cyclopropyl-2-((3-isobutyl-2-oxo-2,3-dihydro-1,3-benzothiazol-6-yl)amino)nicotinic acid], in test [1], the IC50 was 10 to 100 nM.

As for `O=C(O)c1cc(Cl)ccc1Nc1ccc2c(c1)cc(CO)n2Cc1ccccc1` [Example 25, 2-((1-benzyl-2-(hydroxymethyl)-1H-indol-5-yl)amino)-5-chlorobenzoic acid], in test [1], the IC50 was 10 to 100 nM.

As to `O=C(O)c1cc(C2CC2)cnc1Nc1ccc2c(ccn2Cc2c(F)cccc2F)c1` [Example 634, 5-cyclopropyl-2-((1-(2,6-difluorobenzyl)-1H-indol-5-yl)amino)nicotinic acid], the IC50 in test [1] is not above 10 nM.

On to `Cn1cc(-c2ccc(F)cc2)c2cc(Nc3ncc(C4CC4)cc3C(=O)O)ccc21` [Example 561, 5-cyclopropyl-2-((3-(4-fluorophenyl)-1-methyl-1H-indol-5-yl)amino)nicotinic acid], for which, in test [1], the IC50 lay within 10 to 100 nM.

With `O=C(O)c1cc(C2CC2)cnc1Nc1cccc2c(-c3ccccc3)ncnc12` [Example 531, 5-cyclopropyl-2-((4-phenylquinazolin-8-yl)amino)nicotinic acid], the IC50 in test [1] was 10 to 100 nM.

For the compound `CCCCCCCn1ccc2cc(Nc3ncc(C4CC4)cc3C(=O)O)ccc21` [Example 640, 5-cyclopropyl-2-((1-heptyl-1H-indol-5-yl)amino)nicotinic acid], the IC50 in test [1] lay in the range of 10 to 100 nM.

On to `O=C(O)c1cc(C2CC2)cnc1Nc1ccc2c(c1)CCCN2Cc1ccccc1` [Example 183, 2-((1-benzyl-1,2,3,4-tetrahydroquinolin-6-yl)amino)-5-cyclopropylnicotinic acid], for which, in test [1], the IC50 was in the range of 10 to 100 nM.

As to `O=C(O)c1cc(C2CC2)cnc1Nc1cccc2c(-c3ccccc3)cccc12` [Example 367, 5-cyclopropyl-2-((5-phenylnaphthalen-1-yl)amino)nicotinic acid], the IC50 in test [1] is not above 10 nM.

Take `Cc1cn(CC(C)C)c2ccc(Nc3ncc(C4CC4)cc3C(=O)O)cc12` [Example 535, 5-cyclopropyl-2-((1-isobutyl-3-methyl-1H-indol-5-yl)amino)nicotinic acid]: the IC50 in test [1] was not above 10 nM.

Take `COc1cccc(-c2cc(Nc3ncc(C4CC4)cc3C(=O)O)cc3ccn(C)c23)c1` [Example 486, 5-cyclopropyl-2-((7-(3-methoxyphenyl)-1-methyl-1H-indol-5-yl)amino)nicotinic acid]: the IC50 in test [1] was not above 10 nM.

Regarding `COc1ccc(Cn2ccc3cc(Nc4ccc(Cl)cc4C(=O)O)ccc32)cc1` [Example 347, 5-chloro-2-((1-(4-methoxybenzyl)-1H-indol-5-yl)amino)benzoic acid], the IC50 in test [1] was 10 to 100 nM.

As to `O=C(O)c1cc(C2CC2)cnc1Nc1cccc2c(=O)n(-c3ccccc3)cnc12` [Example 369, 5-cyclopropyl-2-((4-oxo-3-phenyl-3,4-dihydroquinazolin-8-yl)amino)nicotinic acid], the IC50 in test [1] fell in the range of 100 to 1000 nM.

For the compound `Cn1ccc2cc(Nc3ncc(C4CC4)cc3C(=O)O)cc(-c3ccccc3OC(F)(F)F)c21` [Example 491, 5-cyclopropyl-2-((1-methyl-7-(2-(trifluoromethoxy)phenyl)-1H-indol-5-yl)amino)nicotinic acid], in test [1], the IC50 is not above 10 nM.

As for `Cn1ccc2cc(Nc3ncc(C4CC4)cc3C(=O)O)cc(-c3ccccc3Cl)c21` [Example 488, 2-((7-(2-chlorophenyl)-1-methyl-1H-indol-5-yl)amino)-5-cyclopropylnicotinic acid], in test [1], the IC50 is not above 10 nM.

For the compound `CC(C)n1ccc2ccc(Nc3ncc(C4CC4)cc3C(=O)O)cc21` [Example 519, 5-cyclopropyl-2-((1-isopropyl-1H-indol-6-yl)amino)nicotinic acid], the IC50 in test [1] is 10 to 100 nM.

Regarding `O=C(O)c1cc(C2CCCC2)cnc1Nc1ccc2c(ccn2Cc2ccccc2)c1` [Example 128, 2-((1-benzyl-1H-indol-5-yl)amino)-5-cyclopentylnicotinic acid], the inhibition in vivo at 1 % strength in test [2] is not below 20%.

As to `O=C(O)c1cc(C2CC2)cnc1Nc1ccc2c(ccn2Cc2cccc(O)c2)c1` [Example 505, 5-cyclopropyl-2-((1-(3-hydroxybenzyl)-1H-indol-5-yl)amino)nicotinic acid], the IC50 in test [1] is not above 10 nM.

Take `Cn1ccc2cc(Nc3ncc(C4CC4)cc3C(=O)O)cc(-c3ccccn3)c21` [Example 500, 5-cyclopropyl-2-((1-methyl-7-(pyridin-2-yl)-1H-indol-5-yl)amino)nicotinic acid]: in test [1], the IC50 lay in the range of 10 to 100 nM.

In the case of `O=C(O)c1cc(C2CC2)cnc1Nc1ccc2c(ccn2Cc2ccc(C(F)(F)F)cc2)c1` [Example 451, 5-cyclopropyl-2-((1-(4-(trifluoromethyl)benzyl)-1H-indol-5-yl)amino)nicotinic acid], the IC50 in test [1] was in the range of 10 to 100 nM.

Turning to `O=C(O)c1cc(Cl)ccc1Nc1ccc2c(ccn2-c2cnccn2)c1` [Example 313, 5-chloro-2-((1-(pyrazin-2-yl)-1H-indol-5-yl)amino)benzoic acid], in test [1], the IC50 fell in the range of 100 to 1000 nM.

With `CC(C)Cn1ccc2ccc(Nc3ncc(C4CC4)cc3C(=O)O)cc21` [Example 521, 5-cyclopropyl-2-((1-isobutyl-1H-indol-6-yl)amino)nicotinic acid], the IC50 in test [1] was not above 10 nM.

Regarding `O=C(O)c1cc(C2CC2)cnc1Nc1ccc2cccc(-c3ccccc3)c2c1` [Example 179, 5-cyclopropyl-2-((8-phenylnaphthalen-2-yl)amino)nicotinic acid], the IC50 in test [1] is not above 10 nM.

With `O=C(O)c1cc(Cl)ccc1Nc1ccc2c(ccn2Cc2cccc(OCc3ccccn3)c2)c1` [Example 19, 5-chloro-2-((1-(3-(pyridin-2-ylmethoxy)benzyl)-1H-indol-5-yl)amino)benzoic acid], in test [1], the IC50 is not above 10 nM.

In the case of `O=C(O)c1cc(C2CC2)cnc1Nc1ccc2c(ccn2Cc2ccccc2Cl)c1` [Example 459, 2-((1-(2-chlorobenzyl)-1H-indol-5-yl)amino)-5-cyclopropylnicotinic acid], the IC50 in test [1] is not above 10 nM.

Take `Cc1cccc(-c2cn(C)c3ccc(Nc4ncc(C5CC5)cc4C(=O)O)cc23)c1` [Example 569, 5-cyclopropyl-2-((1-methyl-3-(3-methylphenyl)-1H-indol-5-yl)amino)nicotinic acid]: in test [1], the IC50 was in the range of 100 to 1000 nM.

Take `CSc1nccc(-n2ccc3cc(Nc4ccc(Cl)cc4C(=O)O)ccc32)n1` [Example 319, 5-chloro-2-((1-(2-(methylthio)pyrimidin-4-yl)-1H-indol-5-yl)amino)benzoic acid]: the IC50 in test [1] fell in the range of 10 to 100 nM.
